ChEMBL document CHEMBL5543140 (J Med Chem, 2024)
The source made the active and inactive calls. The calls are words filed in the database; no cut-off is given here.

Tests used:
[1] = Metabolic stability in human liver microsomes assessed as half life at 1 uM incubated for 120 mins in presence of NADPH; type: ADME, Microsome
Hippocampus [2] = assay: Induction of neuroplasticity in C57BL/6J mouse assessed as increase in CREB1 mRNA expression in brain hippocampus at 3 mg/kg, sc single dose by RT-PCR analysis; type: functional, organism-based
Mus musculus [3] = assay: Psychedelic effect in C57BL/6J mouse assessed as number of head-twitch responses by visual observation at 3 mg/kg, po measured for 3 mins at 160 to 170 min; type: functional; conditions: 0.05 h
[4] = MRTinf in male Sprague-Dawley rat plasma at 1 mg/kg, iv measured upto 8 hrs by LC-MS/MS analysis; type: ADME, organism-based
[5] = Ex vivo binding in C57BL/6J mouse brain frontal cortex assessed as inhibition of [3H]Cimbi-36 binding at 1 mg/kg, sc measured after 10 mins by liquid scintillation counting analysis (reference value: 0%); type: functional
[6] = molecular target: T1, 5-hydroxytryptamine receptor 2C (Homo sapiens, UniProt P28335); assay: Agonist activity at human 5-HT2C receptor expressed in HEK293 cells assessed as IP2 production measured after 30 mins incubation by HTRF assay; type: functional, cell-based
T1 sequence (P28335 whole entry): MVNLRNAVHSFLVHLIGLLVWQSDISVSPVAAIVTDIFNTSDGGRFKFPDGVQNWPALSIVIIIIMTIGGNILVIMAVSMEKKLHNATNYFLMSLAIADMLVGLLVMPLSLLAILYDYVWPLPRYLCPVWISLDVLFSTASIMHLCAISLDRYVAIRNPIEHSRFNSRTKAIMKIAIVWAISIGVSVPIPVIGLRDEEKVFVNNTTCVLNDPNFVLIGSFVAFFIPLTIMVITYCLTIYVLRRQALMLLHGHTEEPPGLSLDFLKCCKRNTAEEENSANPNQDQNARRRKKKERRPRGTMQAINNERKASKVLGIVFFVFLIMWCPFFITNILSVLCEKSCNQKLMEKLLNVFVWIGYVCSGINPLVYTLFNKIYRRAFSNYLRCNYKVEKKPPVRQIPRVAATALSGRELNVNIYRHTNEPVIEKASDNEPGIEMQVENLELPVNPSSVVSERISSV

Hippocampus [7] = assay: Induction of neuroplasticity in C57BL/6J mouse assessed as increase in IGF1 mRNA expression in brain hippocampus at 3 mg/kg, sc single dose by RT-PCR analysis; type: functional, organism-based
[8] = Ex vivo binding in C57BL/6J mouse brain frontal cortex assessed as inhibition of [3H]Cimbi-36 binding at 1 mg/kg, sc measured after 220 mins by liquid scintillation counting analysis (reference value: 0%); type: functional; conditions: 3.667 h
Brain = assay: Drug binding in male Sprague-Dawley rat brain homogenate at 1 mg/kg, iv measured upto 8 hrs by LC-MS/MS analysis; type: ADME, organism-based; conditions: in vivo
[9] = molecular target: Muscarinic acetylcholine receptor M5 (Homo sapiens) (UniProt P08912); assay: Displacement of [3H]4-DAMP from human recombinant muscarinic M5 receptor expressed in HEK293 cells at 10 uM incubated for 60 mins by radiometric based scintillation counter assay relative to control; type: cell-based
Sequence of Muscarinic acetylcholine receptor M5 (Homo sapiens) (P08912 whole entry): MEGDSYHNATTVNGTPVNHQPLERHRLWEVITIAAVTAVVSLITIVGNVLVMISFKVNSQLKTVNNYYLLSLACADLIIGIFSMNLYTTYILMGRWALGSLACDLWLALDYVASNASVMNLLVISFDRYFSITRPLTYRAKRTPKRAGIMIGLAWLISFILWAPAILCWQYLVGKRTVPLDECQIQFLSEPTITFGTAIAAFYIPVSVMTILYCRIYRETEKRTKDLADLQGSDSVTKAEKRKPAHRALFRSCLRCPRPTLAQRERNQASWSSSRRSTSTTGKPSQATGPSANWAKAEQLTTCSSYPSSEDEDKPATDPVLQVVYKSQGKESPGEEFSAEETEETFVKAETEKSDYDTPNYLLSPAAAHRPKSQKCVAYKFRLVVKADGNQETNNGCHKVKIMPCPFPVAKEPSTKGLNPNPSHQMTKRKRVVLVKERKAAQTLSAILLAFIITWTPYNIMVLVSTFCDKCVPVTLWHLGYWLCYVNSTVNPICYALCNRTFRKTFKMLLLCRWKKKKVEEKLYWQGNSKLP

[10] = molecular target: T2, 5-hydroxytryptamine receptor 6 (Homo sapiens, UniProt P50406); assay: Displacement of [3H]LSD from 5-HT6 receptor (unknown origin) assessed as inhibition binding at 10 uM relative to control
T2 sequence (P50406 whole entry): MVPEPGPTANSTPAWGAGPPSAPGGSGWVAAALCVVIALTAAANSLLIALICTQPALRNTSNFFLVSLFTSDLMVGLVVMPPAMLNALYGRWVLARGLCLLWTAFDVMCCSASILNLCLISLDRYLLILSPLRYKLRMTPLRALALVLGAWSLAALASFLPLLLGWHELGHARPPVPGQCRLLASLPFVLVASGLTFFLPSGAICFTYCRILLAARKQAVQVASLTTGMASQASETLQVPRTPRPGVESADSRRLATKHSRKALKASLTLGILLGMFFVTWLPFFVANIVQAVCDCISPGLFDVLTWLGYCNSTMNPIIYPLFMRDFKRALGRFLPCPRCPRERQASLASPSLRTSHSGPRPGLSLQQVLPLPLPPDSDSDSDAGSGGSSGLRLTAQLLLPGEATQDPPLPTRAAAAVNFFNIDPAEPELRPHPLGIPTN

[11] = AUClast in beagle dog at 2 mg/kg, po measured upto 24 hrs; type: ADME, organism-based, Canis lupus familiaris; conditions: in vivo
[12] = Metabolic stability in dog liver S9 fractions assessed as half life; type: ADME, subcellular, Canis lupus familiaris; conditions: liver S9 fraction
[13] = molecular target: T2, 5-hydroxytryptamine receptor 6; assay: Displacement of [3H]LSD from 5-HT6 receptor (unknown origin) assessed as inhibition binding
[14] = Tmax in male Sprague-Dawley rat CSF at 1 mg/kg, iv measured upto 8 hrs by LC-MS/MS analysis; type: ADME, organism-based, Cerebrospinal fluid
[15] = Renal clearance in Wistar rat plasma at 1 mg/kg, iv measured upto 48 hrs; type: ADME, organism-based
[16] = AUCinf in beagle dog at 2 mg/kg, po measured upto 24 hrs; type: ADME, organism-based, Canis lupus familiaris; conditions: in vivo
Hippocampus [17] = assay: Induction of neuroplasticity in C57BL/6J mouse assessed as increase in mTOR mRNA expression in brain hippocampus at 0.3 mg/kg, sc single dose by RT-PCR analysis; type: functional, organism-based
[18] = AUClast in Wistar rat plasma at 1 mg/kg, iv measured upto 48 hrs; type: ADME, organism-based
Mus musculus [19] = assay: Psychedelic effect in C57BL/6J mouse assessed as maximal number of 5-HT2A receptor dependent head-twitch responses by visual observation at 3 mg/kg, sc (reference value: 3); type: functional
Mus musculus [20] = assay: Induction of neuroplasticity in C57BL/6J mouse assessed as increase in BDNF mRNA expression in brain frontal cortex at 3 mg/kg, sc single dose by RT-PCR analysis; type: functional, organism-based
[21] = Absolute oral bioavailability in Wistar rat plasma at 5 mg/kg, […] measured upto 48 hrs; type: ADME, organism-based
[22] = Tmax in male Sprague-Dawley rat brain at 1 mg/kg, iv measured upto 8 hrs by LC-MS/MS analysis; type: ADME, organism-based
[23] = Drug excretion in Wistar rat urine at 1 mg/kg, iv measured upto 48 hrs; type: ADME, organism-based; conditions: read-out: Drug excretion
[24] = MRTinf in male Sprague-Dawley rat brain at 1 mg/kg, iv measured upto 8 hrs by LC-MS/MS analysis; type: ADME, organism-based
[25] = Ex vivo binding in C57BL/6J mouse brain frontal cortex assessed as inhibition of [3H]Cimbi-36 binding at 1 mg/kg, sc measured after 160 mins by liquid scintillation counting analysis (reference value: 0%); type: functional; conditions: 2.667 h
[26] = molecular target: Muscarinic acetylcholine receptor M4 (Homo sapiens) (UniProt P08173); assay: Displacement of [3H]4-DAMP from human recombinant muscarinic M4 receptor expressed in HEK293 cells at 10 uM incubated for 60 mins by radiometric based scintillation counter assay relative to control; type: cell-based
Sequence of Muscarinic acetylcholine receptor M4 (Homo sapiens) (P08173 whole entry): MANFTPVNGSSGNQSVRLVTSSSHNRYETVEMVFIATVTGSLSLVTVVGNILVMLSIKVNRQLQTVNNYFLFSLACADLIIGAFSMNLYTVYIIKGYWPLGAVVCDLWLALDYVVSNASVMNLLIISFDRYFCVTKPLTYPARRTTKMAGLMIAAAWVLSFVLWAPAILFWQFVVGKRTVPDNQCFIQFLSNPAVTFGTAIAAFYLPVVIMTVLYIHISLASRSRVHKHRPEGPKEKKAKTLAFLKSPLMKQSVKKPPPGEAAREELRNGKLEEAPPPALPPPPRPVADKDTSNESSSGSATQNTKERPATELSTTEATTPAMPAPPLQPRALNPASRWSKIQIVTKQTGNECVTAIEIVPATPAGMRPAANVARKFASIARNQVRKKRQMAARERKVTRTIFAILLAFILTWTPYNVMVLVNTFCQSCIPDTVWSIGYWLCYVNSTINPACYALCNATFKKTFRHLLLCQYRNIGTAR

[27] = Cmax in Wistar rat brain at 1 mg/kg, iv measured upto 48 hrs; type: ADME, organism-based
[28] = molecular target: 5-hydroxytryptamine receptor 1B (Homo sapiens, UniProt P28222); assay: Displacement of [3H]5-CT from 5-HT1B receptor (unknown origin) assessed as inhibition binding
Sequence of 5-hydroxytryptamine receptor 1B (P28222 whole entry): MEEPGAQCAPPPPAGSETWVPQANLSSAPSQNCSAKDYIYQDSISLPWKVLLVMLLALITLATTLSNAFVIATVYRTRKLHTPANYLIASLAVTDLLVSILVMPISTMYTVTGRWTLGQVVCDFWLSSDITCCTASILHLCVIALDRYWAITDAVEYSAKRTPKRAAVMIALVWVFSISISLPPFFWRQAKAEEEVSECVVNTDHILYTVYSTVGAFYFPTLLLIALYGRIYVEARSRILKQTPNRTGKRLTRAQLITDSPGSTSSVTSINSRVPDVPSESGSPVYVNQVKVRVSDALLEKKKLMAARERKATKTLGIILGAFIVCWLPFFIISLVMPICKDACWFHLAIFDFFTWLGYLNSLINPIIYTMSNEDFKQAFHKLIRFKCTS

[29] = Initial plasma concentration in Wistar rat at 1 mg/kg, iv measured upto 48 hrs; type: ADME, organism-based
[30] = AUCinf in beagle dog at 0.4 mg/kg, iv measured upto 24 hrs; type: ADME, organism-based, Canis lupus familiaris; conditions: in vivo
[31] = molecular target: Voltage-dependent L-type calcium channel subunit alpha-1C (Homo sapiens, UniProt Q13936); assay: Binding affinity to human Calcium channel L-type (verapamil site) at 10 uM measured after 180 mins by [3H]D888-Radiometric assay relative to control
Sequence of Voltage-dependent L-type calcium channel subunit alpha-1C (Q13936 whole entry): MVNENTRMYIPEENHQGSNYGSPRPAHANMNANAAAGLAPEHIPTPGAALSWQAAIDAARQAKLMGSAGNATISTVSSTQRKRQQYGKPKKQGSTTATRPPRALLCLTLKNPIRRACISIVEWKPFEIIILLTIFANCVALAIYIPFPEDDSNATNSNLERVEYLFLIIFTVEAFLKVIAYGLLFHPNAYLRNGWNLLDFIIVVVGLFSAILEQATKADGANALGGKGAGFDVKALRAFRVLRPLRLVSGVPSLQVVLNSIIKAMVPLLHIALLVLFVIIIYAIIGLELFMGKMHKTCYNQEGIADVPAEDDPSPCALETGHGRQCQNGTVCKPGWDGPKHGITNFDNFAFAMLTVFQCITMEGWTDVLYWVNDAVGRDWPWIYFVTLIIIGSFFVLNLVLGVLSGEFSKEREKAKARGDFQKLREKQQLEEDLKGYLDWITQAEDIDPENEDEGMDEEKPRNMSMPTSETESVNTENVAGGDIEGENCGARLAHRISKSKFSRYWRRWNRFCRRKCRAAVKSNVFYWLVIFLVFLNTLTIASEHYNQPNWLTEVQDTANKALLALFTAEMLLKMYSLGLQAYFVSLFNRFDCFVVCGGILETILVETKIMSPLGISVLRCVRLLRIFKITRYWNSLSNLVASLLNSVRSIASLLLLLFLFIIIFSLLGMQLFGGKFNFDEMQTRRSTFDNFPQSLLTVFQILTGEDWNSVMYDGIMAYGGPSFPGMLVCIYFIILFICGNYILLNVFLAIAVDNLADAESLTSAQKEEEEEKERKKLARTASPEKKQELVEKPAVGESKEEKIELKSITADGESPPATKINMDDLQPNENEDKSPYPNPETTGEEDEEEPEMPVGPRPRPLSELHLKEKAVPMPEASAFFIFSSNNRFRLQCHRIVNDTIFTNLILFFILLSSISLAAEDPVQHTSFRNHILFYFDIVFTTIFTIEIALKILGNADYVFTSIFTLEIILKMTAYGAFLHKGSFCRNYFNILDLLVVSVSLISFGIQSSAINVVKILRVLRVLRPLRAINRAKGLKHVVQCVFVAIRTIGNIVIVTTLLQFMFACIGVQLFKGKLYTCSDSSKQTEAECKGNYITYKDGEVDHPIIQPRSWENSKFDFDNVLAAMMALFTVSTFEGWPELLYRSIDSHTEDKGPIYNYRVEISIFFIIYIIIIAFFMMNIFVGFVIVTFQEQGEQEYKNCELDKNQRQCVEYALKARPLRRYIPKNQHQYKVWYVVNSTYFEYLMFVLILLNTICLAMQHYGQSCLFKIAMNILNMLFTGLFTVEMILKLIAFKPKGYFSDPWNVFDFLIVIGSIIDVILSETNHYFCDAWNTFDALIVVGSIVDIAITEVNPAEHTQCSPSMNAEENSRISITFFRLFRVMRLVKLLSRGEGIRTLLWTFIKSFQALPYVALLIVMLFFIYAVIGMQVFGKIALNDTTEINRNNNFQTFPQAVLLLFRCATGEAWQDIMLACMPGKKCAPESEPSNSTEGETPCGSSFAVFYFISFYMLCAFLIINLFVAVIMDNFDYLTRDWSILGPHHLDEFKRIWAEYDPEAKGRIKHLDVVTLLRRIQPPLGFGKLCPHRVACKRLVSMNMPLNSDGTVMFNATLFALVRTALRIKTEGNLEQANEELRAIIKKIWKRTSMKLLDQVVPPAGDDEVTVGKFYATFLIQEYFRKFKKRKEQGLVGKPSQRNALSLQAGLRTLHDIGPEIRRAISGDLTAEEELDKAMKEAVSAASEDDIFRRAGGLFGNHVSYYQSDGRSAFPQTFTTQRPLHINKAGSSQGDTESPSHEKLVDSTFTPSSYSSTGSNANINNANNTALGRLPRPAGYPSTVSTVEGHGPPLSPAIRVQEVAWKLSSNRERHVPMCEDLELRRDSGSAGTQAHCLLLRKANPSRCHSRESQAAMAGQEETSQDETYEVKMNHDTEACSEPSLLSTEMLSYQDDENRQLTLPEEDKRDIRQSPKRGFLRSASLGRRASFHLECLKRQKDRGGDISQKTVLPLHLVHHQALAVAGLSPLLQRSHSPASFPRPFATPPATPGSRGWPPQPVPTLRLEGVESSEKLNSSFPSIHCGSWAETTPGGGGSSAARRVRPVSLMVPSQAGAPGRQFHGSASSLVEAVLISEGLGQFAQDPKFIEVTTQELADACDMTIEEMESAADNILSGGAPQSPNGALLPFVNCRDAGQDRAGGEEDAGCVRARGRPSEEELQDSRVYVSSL

Mus musculus [32] = assay: Locomotor activity in C57BL/6J mouse assessed as distance traveled at 1 mg/kg, po measured for 15 to 25 mins (reference value: 1710 +/- 120 cm) by Ethovision tracking system; type: functional; conditions: time 15-25 min
[33] = Half life in Wistar rat brain at 5 mg/kg, po measured upto 48 hrs; type: ADME, organism-based
[34] = Cmax in Wistar rat brain at 5 mg/kg, po measured upto 48 hrs; type: ADME, organism-based

With `COc1cc([Se]C(F)(F)F)c(OC)cc1CCN.Cl` as the compound, how does the half-life at 1 µM [1] read?
Its half-life at 1 µM is greater than 2 h.

What about the Activity (Hippocampus [2]) of the same compound?
The Activity was “inactive”.

And the Activity (Mus musculus [3])?
Its Activity is 29.

And the MRT inf [4]?
The MRT inf was 1.19 h.

What about the inhibition in vivo at 1 mg/kg [5] of the same compound?
Its inhibition in vivo at 1 mg/kg is 9%.

What about the EC50 [6] of the same compound?
The EC50 was 92 nM.

What about the Activity (Hippocampus [7]) of the same compound?
Its Activity is “inactive”.

What about the inhibition in vivo at 1 mg/kg [8] of the same compound?
The inhibition in vivo at 1 mg/kg was 27%.

What about the Activity (Brain) of the same compound?
The Activity was greater than 98%.

What about the inhibition [9] of the same compound?
Its inhibition is 83%.

What about the inhibition [10] of the same compound?
The inhibition was 90%.

What about the AUC(0-t) at 24 h [11] of the same compound?
Its AUC(0-t) at 24 h is 2720 ng·h/mL.

What about the half-life [12] of the same compound?
Its half-life is greater than 2 h.

And the Ki [13]?
Its Ki is 1300 nM.

What about the Tmax [14] of the same compound?
The Tmax was 4.98 min.

And the CL renal at 48 h [15]?
The CL renal at 48 h was 1.13 mL/min/kg.

And the AUC(0-inf) [16]?
Its AUC(0-inf) is 2970 ng·h/mL.

And the Activity (Hippocampus [17])?
The Activity was “inactive”.

And the AUC(0-t) at 48 h [18]?
The AUC(0-t) at 48 h was 42.2 ng·h/mL.

What about the Activity (Mus musculus [19]) of the same compound?
The Activity was 23.

What about the Activity (Mus musculus [20]) of the same compound?
Its Activity is “Active”.

And the bioavailability [21]?
The bioavailability was 19.1%.

What about the Tmax [22] of the same compound?
The Tmax was 0.25 h.

And the dose excreted at 48 h [23]?
Its dose excreted at 48 h is 0.07%.

And the MRT inf [24]?
Its MRT inf is 1.98 h.

And the inhibition in vivo at 1 mg/kg [25]?
Its inhibition in vivo at 1 mg/kg is 33%.

What about the inhibition [26] of the same compound?
The inhibition was 86%.

What about the Cmax [27] of the same compound?
The Cmax was 890 ng/mL.

And the Ki [28]?
The Ki was 949 nM.

And the C0 at 48 h [29]?
The C0 at 48 h was 67.2 ng/mL.

And the AUC(0-inf) [30]?
Its AUC(0-inf) is 446 ng·h/mL.

What about the Activity [31] of the same compound?
The Activity was 85%.

What about the Activity (Mus musculus [32]) of the same compound?
The Activity was 2602 cm.

And the half-life [33]?
Its half-life is 4.71 h.

And the Cmax [34]?
The Cmax was 402 ng/mL.
